Measured values: PubChem BioAssay AID250 (DTP/NCI, 2004)
Values joined by “and” are separate entries in the source; they are usually repeats but may differ in a detail not shown here. Equal values may be shown once. Toxic doses and inconclusive results are not listed.

Tested on: BDF1 mice, L1210 leukemia sc, survival T/C
Experiment: NCI In Vivo Anticancer Drug Screen. Data for tumor model L1210 Leukemia (subcutaneous) in B6D2F1 (BDF1) mice
Conditions: higher = longer survival
How it was run: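 Mice carrying transplanted tumors received test compounds, and survival or tumor size was measured. Values are the treated-group measurement (T) divided by that of the vehicle-treated control group (C).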

[1] = endpoint: median survival time, dose: 3.0 mg/kg/injection, schedule: Q01DX Z (sc), vehicle: saline
[2] = endpoint: median survival time, dose: 5.0 mg/kg/injection, schedule: Q01DX Z (sc), vehicle: saline
[3] = endpoint: median survival time, dose: 8.4 mg/kg/injection, schedule: Q01DX Z (sc), vehicle: saline
[4] = endpoint: median survival time, dose: 14.0 mg/kg/injection, schedule: Q01DX Z (sc), vehicle: saline
[5] = endpoint: median survival time, dose: 23.0 mg/kg/injection, schedule: Q01DX Z (sc), vehicle: saline
[6] = endpoint: median survival time, dose: 23.0 mg/kg/injection, schedule: Q01DX Z (sc), vehicle: water

Q: What does the source list for `C[n+]1ccc(Nc2ccc(NC(=O)c3ccc(Nc4cc[n+](C)c5ccc(N)cc45)cc3N)cc2)cc1`?
A: T/C (endpoint: median survival time, dose: 0.5 mg/kg/injection, schedule: Q03HX024 (ip), vehicle: water): 111 % of control; T/C (endpoint: median survival time, dose: 1.0 mg/kg/injection, schedule: Q01DX009 (ip), vehicle: water): 116 % of control; T/C (endpoint: median survival time, dose: 2.0 mg/kg/injection, schedule: Q01DX009 (ip), vehicle: water): 155 % of control; T/C (endpoint: median survival time, dose: 2.0 mg/kg/injection, schedule: Q01DX009 (sc), vehicle: water): 110 % of control; T/C (endpoint: median survival time, dose: 2.0 mg/kg/injection, schedule: Q03HX024 (ip), vehicle: water): 183 % of control; T/C (endpoint: median survival time, dose: 4.0 mg/kg/injection, schedule: Q01DX009 (ip), vehicle: water): 233 % of control; T/C (endpoint: median survival time, dose: 4.0 mg/kg/injection, schedule: Q01DX009 (sc), vehicle: water): 170 % of control; T/C (endpoint: median survival time, dose: 4.0 mg/kg/injection, schedule: Q03HX008 (sc), vehicle: water): 120 % of control; T/C (endpoint: median survival time, dose: 4.0 mg/kg/injection, schedule: Q03HX024 (ip), vehicle: water): 288 % of control; T/C (endpoint: median survival time, dose: 4.0 mg/kg/injection, schedule: Q03HX024 (sc), vehicle: water): 165 % of control; T/C (endpoint: median survival time, dose: 8.0 mg/kg/injection, schedule: Q01DX009 (ip), vehicle: water): 194 % of control; T/C (endpoint: median survival time, dose: 8.0 mg/kg/injection, schedule: Q01DX009 (sc), vehicle: water): 225 % of control; T/C (endpoint: median survival time, dose: 8.0 mg/kg/injection, schedule: Q03HX024 (ip), vehicle: water): 188 % of control; T/C (endpoint: median survival time, dose: 8.0 mg/kg/injection, schedule: Q03HX024 (sc), vehicle: water): 220 % of control; T/C (endpoint: median survival time, dose: 8.0 mg/kg/injection, schedule: Q04DX003 (sc), vehicle: water): 100 % of control; T/C (endpoint: median survival time, dose: 16.0 mg/kg/injection, schedule: Q01DX001 (sc), vehicle: water): 110 % of control; T/C (endpoint: median survival time, dose: 16.0 mg/kg/injection, schedule: Q01DX009 (ip), vehicle: water): 177 % of control; T/C (endpoint: median survival time, dose: 16.0 mg/kg/injection, schedule: Q01DX009 (sc), vehicle: water): 270 % of control; T/C (endpoint: median survival time, dose: 16.0 mg/kg/injection, schedule: Q03HX008 (sc), vehicle: water): 235 % of control; T/C (endpoint: median survival time, dose: 16.0 mg/kg/injection, schedule: Q03HX024 (sc), vehicle: water): 155 % of control; T/C (endpoint: median survival time, dose: 32.0 mg/kg/injection, schedule: Q01DX009 (sc), vehicle: water): 180 % of control; T/C (endpoint: median survival time, dose: 32.0 mg/kg/injection, schedule: Q03HX008 (sc), vehicle: water): 210 % of control; T/C (endpoint: median survival time, dose: 32.0 mg/kg/injection, schedule: Q03HX024 (sc), vehicle: water): 100 % of control; T/C (endpoint: median survival time, dose: 32.0 mg/kg/injection, schedule: Q04DX003 (sc), vehicle: water): 205 % of control; T/C (endpoint: median survival time, dose: 64.0 mg/kg/injection, schedule: Q01DX001 (sc), vehicle: water): 215 % of control; T/C (endpoint: median survival time, dose: 64.0 mg/kg/injection, schedule: Q04DX003 (sc), vehicle: water): 260 % of control; T/C (endpoint: median survival time, dose: 128.0 mg/kg/injection, schedule: Q01DX001 (sc), vehicle: water): 240 % of control; T/C (endpoint: median survival time, dose: 128.0 mg/kg/injection, schedule: Q04DX003 (sc), vehicle: water): 245 % of control

Q: Which T/C (endpoint: median survival time, dose: 39.0 mg/kg/injection, schedule: Q01DX Z (sc), vehicle: carboxymethylcellulose (CMC)) does the source give for `CC(=O)c1ccc(NC(=O)N(CCCl)N=O)cc1` here?
A: Its T/C is 183 % of control.

Q: What about the T/C (endpoint: median survival time, dose: 65.0 mg/kg/injection, schedule: Q01DX Z (sc), vehicle: carboxymethylcellulose (CMC)) of the same molecule?
A: The T/C was 211 % of control.

Q: How did the T/C [1] turn out when `COC(=O)[C@@H]1c2cc3c(c(O)c2[C@@H](OC2OC(C)C(OC)C(C)(OC)C2OC)C[C@]1(C)O)C(=O)c1c(O)cc2c(c1C3=O)O[C@H]1O[C@]2(C)[C@H](O)[C@@H](N(C)C)[C@@H]1O` (some centres not stated) was run?
A: Its T/C is 105 % of control.

Q: What about the T/C [2] of the same molecule?
A: The T/C was 100 % of control.

Q: What about the T/C [3] of the same molecule?
A: The T/C was 100 % of control.

Q: And the T/C [4]?
A: The T/C was 90 % of control.

Q: And the T/C [5]?
A: The T/C was 90 % of control.

Q: `CCC(=O)NC1=C(N2CC2)C(=O)C(NC(=O)CC)=C(N2CC2)C1=O` was tested. Which T/C (endpoint: median survival time, dose: 1.08 mg/kg/injection, schedule: Q01DX Z (sc), vehicle: methylcellulose (MC)) did it give?
A: Its T/C is 110 % of control.

Q: What about the T/C (endpoint: median survival time, dose: 1.8 mg/kg/injection, schedule: Q01DX Z (sc), vehicle: methylcellulose (MC)) of the same molecule?
A: The T/C was 110 % of control.

Q: Which T/C [1] does the source give for `O=C(Nc1ccc(C2=NCCN2)cc1)c1ccc(C(=O)Nc2ccc(C3=NCCN3)cc2)c([N+](=O)[O-])c1` here?
A: The T/C was 100 % of control.

Q: What about the T/C [2] of the same molecule?
A: Its T/C is 109 % of control.

Q: What about the T/C [3] of the same molecule?
A: Its T/C is 104 % of control and 109 % of control.

Q: And the T/C [4]?
A: The T/C was 104 % of control.

Q: And the T/C (endpoint: median survival time, dose: 23.0 mg/kg/injection, schedule: Q01DX Z (ip), vehicle: water)?
A: The T/C was 100 % of control.

Q: What about the T/C [5] of the same molecule?
A: The T/C was 118 % of control.

Q: And the T/C [6]?
A: Its T/C is 100 % of control.

Q: And the T/C (endpoint: median survival time, dose: 39.0 mg/kg/injection, schedule: Q01DX Z (ip), vehicle: water)?
A: The T/C was 160 % of control.

Q: What about the T/C (endpoint: median survival time, dose: 39.0 mg/kg/injection, schedule: Q01DX Z (sc), vehicle: water) of the same molecule?
A: The T/C was 115 % of control.

Q: What about the T/C (endpoint: median survival time, dose: 65.0 mg/kg/injection, schedule: Q01DX Z (ip), vehicle: water) of the same molecule?
A: The T/C was 180 % of control.

Q: What about the T/C (endpoint: median survival time, dose: 65.0 mg/kg/injection, schedule: Q01DX Z (sc), vehicle: saline) of the same molecule?
A: The T/C was 114 % of control and 209 % of control.

Q: `O=C(Nc1ccc(S(=O)(=O)O)cc1)c1ccc([N+](=O)[O-])cc1` was tested. Which T/C (endpoint: median survival time, dose: 8.4 mg/kg/injection, schedule: Q01DX Z (sc), vehicle: water) did it give?
A: The T/C was 155 % of control.

Q: What about the T/C (endpoint: median survival time, dose: 14.0 mg/kg/injection, schedule: Q01DX Z (sc), vehicle: water) of the same molecule?
A: Its T/C is 194 % of control.

Q: And the T/C [6]?
A: Its T/C is 150 % of control.

Q: With `CC(=O)Nc1ccc2c(Nc3ccc(NS(C)(=O)=O)cc3)c3ccccc3nc2c1` as the molecule, how does the T/C (endpoint: mean survival time, dose: 1.5 mg/kg/injection, schedule: Q01DX009 (sc), vehicle: saline) read?
A: The T/C was 114 % of control.

Q: What about the T/C (endpoint: mean survival time, dose: 3.0 mg/kg/injection, schedule: Q01DX009 (sc), vehicle: saline) of the same molecule?
A: Its T/C is 111 % of control.

Q: And the T/C (endpoint: mean survival time, dose: 6.25 mg/kg/injection, schedule: Q01DX009 (sc), vehicle: saline)?
A: The T/C was 121 % of control.

Q: What about the T/C (endpoint: mean survival time, dose: 12.5 mg/kg/injection, schedule: Q01DX009 (sc), vehicle: saline) of the same molecule?
A: Its T/C is 182 % of control.

Q: What does the source list for `NS(=O)(=O)c1ncnc2nc[nH]c12`?
A: T/C (endpoint: median survival time, dose: 65.0 mg/kg/injection, schedule: Q01DX Z (sc), vehicle: methylcellulose (MC)): 100 % of control; T/C (endpoint: median survival time, dose: 108.0 mg/kg/injection, schedule: Q01DX Z (sc), vehicle: methylcellulose (MC)): 105 % of control
